# Laboratory results: US8198273B2, “Compounds and methods for kinase modulation, and indications therefor” (Plexxikon Inc., priority 2009, dated 2012)
# Molecular target: CYP3A4(BQ) (Homo sapiens, UniProt P08684)
# Assay: CYP3A4(BQ) inhibition (fluorescent substrate)
# Assay type: in vitro ADME
# Conditions: read-out: Cyp IC50 3A4(BQ)
# Description: CYP (Cytochrome P450) enzymes are the major drug metabolizing enzymes present in the liver. The inhibition of CYP enzyme activity (IC50) for each of CYP1A2, CYP2C19, CYP2C9, CYP2D6, CYP3A4(BFC) and CYP3A4(BQ) is determined for compounds, where inhibition of metabolism of a known substrate leads to a decrease in the fluorescence of the metabolized product. The fluorescence of the product is monitored as a function of compound concentration. Compounds are dissolved in dimethyl sulfoxide to a concentration of 100 mM. These are diluted 1 μL into 82 μL of acetonitrile. […] These are then serially diluted 1:1 (160 μL to 160 μL co-factor mix) for a total of 10 points. A 10 μL aliquot of this final mixture is dispensed into 384 well assay plates and incubated for 10 minutes at 37° C. […] Assay plates are incubated at 37° C. […] The signal versus compound concentration is used to determine the IC50. The enzymes and substrates for this assay are obtained from BD Biosciences.
# Sequence of CYP3A4(BQ) (P08684 whole entry): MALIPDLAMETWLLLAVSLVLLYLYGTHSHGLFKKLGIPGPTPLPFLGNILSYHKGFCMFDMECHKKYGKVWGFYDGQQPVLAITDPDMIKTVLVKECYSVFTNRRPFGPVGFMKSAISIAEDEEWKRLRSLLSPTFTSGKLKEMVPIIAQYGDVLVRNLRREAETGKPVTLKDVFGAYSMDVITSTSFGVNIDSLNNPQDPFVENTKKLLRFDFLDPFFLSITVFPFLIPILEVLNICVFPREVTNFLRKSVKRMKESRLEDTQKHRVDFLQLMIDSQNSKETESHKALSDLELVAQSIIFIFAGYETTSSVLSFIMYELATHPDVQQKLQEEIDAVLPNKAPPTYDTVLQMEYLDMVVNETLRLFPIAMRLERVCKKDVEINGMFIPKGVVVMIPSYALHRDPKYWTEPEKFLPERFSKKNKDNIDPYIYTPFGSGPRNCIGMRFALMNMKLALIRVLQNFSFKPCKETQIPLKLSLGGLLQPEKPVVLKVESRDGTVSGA
row,IC50,SMILES
1,> 10 µM,"CCCS(=O)(=O)Nc1ccc(F)c(C(=O)c2c[nH]c3ncc(-c4ccc(C(=O)NC)nc4)cc23)c1F [P-2180, 5-{3-[2,6-Difluoro-3-(propane-1-sulfonylamino)-benzoyl]-1H-pyrrolo[2,3-b]pyridin-5-yl}-pyridine-2-carboxylic acid methylamide]"
2,> 10 µM,"CCCS(=O)(=O)Nc1ccc(F)c(C(=O)c2c[nH]c3ncc(-c4ccc(SC)nc4)cc23)c1F [P-2187, Propane-1-sulfonic acid {2,4-difluoro-3-[5-(6-methylsulfanyl-pyridin-3-yl)-1H-pyrrolo[2,3-b]pyridine-3-carbonyl]-phenyl}-amide]"
3,> 10 µM,"CCCS(=O)(=O)Nc1ccc(F)c(C(=O)c2c[nH]c3ncc(-c4cncc(S(C)(=O)=O)c4)cc23)c1F [P-2188, Propane-1-sulfonic acid {2,4-difluoro-3-[5-(5-methanesulfonyl-pyridin-3-yl)-1H-pyrrolo[2,3-b]pyridine-3-carbonyl]-phenyl}-amide]"
4,> 10 µM,"CCCS(=O)(=O)Nc1ccc(F)c(C(=O)c2c[nH]c3ncc(-c4ccnc(F)c4)cc23)c1F [P-2192, Propane-1-sulfonic acid {2,4-difluoro-3-[5-(2-fluoro-pyridin-4-yl)-1H-pyrrolo[2,3-b]pyridine-3-carbonyl]-phenyl}-amide]"

# Continued, compound first:
row,SMILES,IC50
1,"CCCS(=O)(=O)Nc1ccc(F)c(C(=O)c2c[nH]c3ncc(-c4cnn(CCN5CCOCC5)c4)cc23)c1F [P-2177, Propane-1-sulfonic acid (2,4-difluoro-3-{5-[1-(2-morpholin-4-yl-ethyl)-1H-pyrazol-4-yl]-1H-pyrrolo[2,3-b]pyridine-3-carbonyl}-phenyl)-amide]",> 10 µM
2,"CCCS(=O)(=O)Nc1ccc(F)c(C(=O)c2c[nH]c3ncc(-c4ccc(C(=O)NC5CC5)nc4)cc23)c1F [P-2181, 5-{3-[2,6-Difluoro-3-(propane-1-sulfonylamino)-benzoyl]-1H-pyrrolo[2,3-b]pyridin-5-yl}-pyridine-2-carboxylic acid cyclopropylamide]",> 10 µM
3,"CCCS(=O)(=O)Nc1ccc(F)c(C(=O)c2c[nH]c3ncc(-c4ccc(S(C)(=O)=O)cc4)cc23)c1F [P-2183, Propane-1-sulfonic acid {2,4-difluoro-3-[5-(4-methanesulfonyl-phenyl)-1H-pyrrolo[2,3-b]pyridine-3-carbonyl]-phenyl}-amide]",> 10 µM
4,"CCCS(=O)(=O)Nc1ccc(F)c(C(=O)c2c[nH]c3ncc(-c4ccc(OC)nc4OC)cc23)c1F [P-2184, Propane-1-sulfonic acid {3-[5-(2,6-dimethoxy-pyridin-3-yl)-1H-pyrrolo[2,3-b]pyridine-3-carbonyl]-2,4-difluoro-phenyl}-amide]",> 10 µM
5,"CCCS(=O)(=O)Nc1ccc(F)c(C(=O)c2c[nH]c3ncc(-c4cnn(Cc5ccccc5)c4)cc23)c1F [P-2190, Propane-1-sulfonic acid {3-[5-(1-benzyl-1H-pyrazol-4-yl)-1H-pyrrolo[2,3-b]pyridine-3-carbonyl]-2,4-difluoro-phenyl}-amide]",> 10 µM
6,"CCCS(=O)(=O)Nc1ccc(F)c(C(=O)c2c[nH]c3ncc(-c4cnc(N5CCOCC5)nc4)cc23)c1F [P-2197, Propane-1-sulfonic acid {2,4-difluoro-3-[5-(2-morpholin-4-yl-pyrimidin-5-yl)-1H-pyrrolo[2,3-b]pyridine-3-carbonyl]-phenyl}-amide]",> 10 µM
